# Laboratory results reported in BindingDB's records for doi:10.1016/s0960-894x(03)00474-8 (Merck Research Laboratories, 2003).
# Molecular target: T1, Dimer of Gag-Pol polyprotein [489-587,Q496K] (Human immunodeficiency virus 1, UniProt P12497, Q496K)
# T1 construct: 489-587
# Assay: Protease Inhibition Assay
# Settings: pH 5.5; 30 °C
# Protocol: Assay of HIV protease inhibition was performed by peptide cleavage using the substrate Val-Ser-Gln-Asn-beta-naphthylalanine*Pro-Ile-Val. Products of the cleavage reaction were quantified by HPLC detection, and data were fit to nonlinear least squares equations for determination of steady-state Michaelis-Menten kinetics.
row,SMILES,IC50 [nM]
1,"CC(C)(c1ncc(-c2cncc(Cl)c2)o1)N1CCN(C[C@@H](O)C[C@@H](Cc2ccccc2)C(=O)N[C@H]2c3ccccc3OC[C@H]2O)[C@H](C(=O)NCC(F)(F)F)C1 [(2S)-1-[(2S,4R)-4-benzyl-2-hydroxy-4-{[(3S,4S)-3-hydroxy-3,4-dihydro-2H-1-benzopyran-4-yl]carbamoyl}butyl]-4-{2-[5-(5-chloropyridin-3-yl)-1,3-oxazol-2-yl]propan-2-yl}-N-(2,2,2-trifluoroethyl)piperazine-2-carboxamide]",0.02
2,"CC(C)(c1ccc(-c2ccncc2)o1)N1CCN(C[C@@H](O)C[C@@H](Cc2ccccc2)C(=O)N[C@H]2c3ccccc3OC[C@H]2O)[C@H](C(=O)NCC(F)(F)F)C1 [(2S)-1-[(2S,4R)-4-benzyl-2-hydroxy-4-{[(3S,4S)-3-hydroxy-3,4-dihydro-2H-1-benzopyran-4-yl]carbamoyl}butyl]-4-{2-[5-(pyridin-4-yl)furan-2-yl]propan-2-yl}-N-(2,2,2-trifluoroethyl)piperazine-2-carboxamide]",0.05
